Data: patent US12097210B2, “Concomitant administration of glucocorticoid receptor modulators and CYP3A inhibitors” (Corcept Therapeutics, Inc., priority 2017, dated 2024)

Columns and labels:
Type in all cases: in vivo, human
[1] = Example 2: safety (adverse events, physical examinations, laboratory tests)
Procedure: Safety was assessed by spontaneously reported adverse events, physical examinations, and routine clinical laboratory tests. Adverse event data were tabulated. Physical findings and laboratory test results were listed by subject.

[2] = Example 1: safety (adverse events, physical examinations, clinical laboratory tests, ECG); conditions: mifepristone 300 mg single dose with ketoconazole for 14 days
Procedure: Subjects in both cohorts returned to the study center on Day 15 for safety monitoring, and completion of the Termination Visit procedures, followed by discharge from the study. Safety was assessed by spontaneously reported adverse events, physical examinations, and routine clinical laboratory tests. To the extent possible, any adverse events deemed study drug-related and that were ongoing at the time of discharge from the study were followed-up to resolution or until a determination is made that the unresolved event was stable.

[3] = Example 3: safety (adverse events, laboratory tests, vital signs, ECGs)
Procedure: (§1) A single dose of ketoconazole was administered on Day −1.

[4] = Example 2: effect of a 400 mg single dose of ketoconazole on PK of an 8-day regimen of 300 mg or 600 mg OD mifepristone after moderate fat breakfast; conditions: for increase in AUC0-24, Day 8 relative to Day 7 / increase in Cmax, Day 8 relative to Day 7: 400 mg ketoconazole on Day 8
Procedure: This was an open-label study in healthy male subjects. […] The 400 mg single dose of ketoconazole was given to all subjects on day 8.
METHODOLOGY: Twelve subjects were enrolled, six in Cohort 1 and 6 in Cohort 2.
Subjects were discharged on Day 11.
Subjects were discharged on Day 11. Subjects in both cohorts returned to study center on Day 13 for safety monitoring, collection of the 120-hour PK draw, and completion of the Termination Visit procedures, followed by discharge from the study. To the extent possible, any adverse events deemed study drug-related and that were ongoing at the time of discharge from the study were followed-up to resolution or until a determination was made that the unresolved event was stable.
DIAGNOSIS AND MAIN […] FOR INCLUSION: Healthy male volunteers between the ages of 18 to 45 years of age with a body mass index (BMI) ranging between 19 and 32 kg/m2 and a weight of at least 60 kg (132 lbs) were enrolled. Subjects had no clinically significant abnormal findings on the physical examination, ECG, blood pressure, heart rate, medical history, or clinical laboratory results during screening. The QTc interval at screening was less than 450 msec.
DURATION OF TREATMENT: Up to a total of 28 days, including up to 2 weeks screening, dosing on Days 1-8, safety observation, and PK sample collection through Day 13.
Additionally, comparisons were made between the PK results of cohort 1 and 2. Pharmacokinetic parameters Cmax, T½ and total AUC were calculated for plasma concentrations of ketoconazole following the single dose on Day 8. Descriptive statistics (count, mean, median, standard deviation, minimum, maximum, and % coefficient of variation) were provided. Ketoconazole concentrations were listed and summarized. GM means of Cmax and total AUC were compared for the single dose in this study to the combined data of reported 400 mg single doses of ketoconazole of healthy subjects from the literature.

[5] = Examples 5-8: liver function of patient with excess cortisol on ketoconazole and reduced mifepristone dose
[6] = Example 1: effect of oral ketoconazole (400 mg OD or 200 mg BID) on plasma pharmacokinetics of a 300 mg single dose of mifepristone, fasted; conditions: Keto 200 mg BID vs 400 mg OD
From the text: This study was an open-label study in healthy male subjects.
Healthy male volunteers between the ages of 18 to 45 years of age with a body mass index (BMI) ranging between 19 and 32 kg/m2 and a weight of at least 60 kg (132 lbs) were enrolled. Subjects had no clinically significant abnormal findings on the physical examination, ECG, blood pressure, heart rate, medical history, or clinical laboratory results during screening. The QTc interval at screening was less than 450 msec.
In cohort 1, six subjects received ketoconazole 400 mg OD for 14 days.
Subjects remained in the clinic on Days 2 and 3 to receive 400 mg OD oral ketoconazole fasted, and for safety evaluation and collection of blood pharmacokinetic (PK) samples. Subjects were discharged from the clinic on Day 4 following administration of 400 mg OD oral ketoconazole fasted, and returned to the clinic the mornings of Days 5 through 13 to receive 400 mg OD oral ketoconazole fasted.
In cohort 2, six subjects received ketoconazole 200 mg BID for 14 days. […] All 12 subjects completed the study. […]
Subjects in both cohorts returned to the study center on Day 15 for safety monitoring, and completion of the Termination Visit procedures, followed by discharge from the study. Safety was assessed by spontaneously reported adverse events, physical examinations, and routine clinical laboratory tests. […]

[7] = Example 3: effect of ketoconazole 200 mg twice daily on PK of mifepristone 600 mg once daily and metabolites, with food
Procedure: as §1
The study was a two period study design.
Concentrations of RU 42633 and RU 42848 were similar on Day 17 and Day 12.

[8] = Example 3: cross-study comparison of exposure with historic study of 1200 mg mifepristone OD
[9] = mifepristone 600 mg OD Days 1-17, ketoconazole 200 mg BID Days 13-17
[10] = MIFE 300 mg/d with vs without 400 mg Keto
[11] = MIFE 600 mg/d with vs without 400 mg Keto
[12] = MIFE 600 vs 300 mg/d, no ketoconazole
[13] = MIFE 600 vs 300 mg/d, with 400 mg Keto
[14] = Test: Day 17, 600 mg mifepristone OD + 200 mg Ketoconazole BID, Reference: Day 12, 600 mg mifepristone OD, geometric mean ratio
[15] = Test: Day 17, 600 mg mifepristone OD + 200 mg Ketoconazole BID, Reference: historic study Day 7, 1200 mg mifepristone OD alone, after 34% fat meal

CC#C[C@]1(O)CC[C@H]2[C@@H]3CCC4=CC(=O)CCC4=C3[C@@H](c3ccc(N(C)C)cc3)C[C@@]21C [Mifepristone, 11β-(4-dimethylaminophenyl)-17β-hydroxy-17α-(1-propynyl)-estra-4,9-dien-3-one]
TEAEs considered possibly or probably related to mifepristone administration ([1]; four subjects in Cohort 2 (600 mg OD)): dizziness, nausea, vomiting, dry mouth, and rash | subjects experiencing at least 1 TEAE ([1]; twelve subjects, mifepristone 300 or 600 mg OD 8 days, ketoconazole 400 mg Day 8): 50% | subjects experiencing at least one treatment emergent adverse event (TEAE) ([2]; 12 subjects): 25% | SAE or AE resulting in discontinuation [2]: No subject experienced an SAE or an AE that resulted in discontinuation from the study | TEAEs considered by the investigator to be related to the drug [2]: No TEAE was considered by the investigator to be related to Mifepristone | changes in ECG parameters [2]: No clinically significant changes in any ECG parameter | changes in laboratory test results [2]: Minimal changes in laboratory test results | discontinuation due to AEs ([3]; during the mifepristone-only treatment period (moderate hypertension; moderate bilateral rash)): Two subjects discontinued due to AEs | subjects with at least one TEAE ([3]; during the mifepristone/ketoconazole treatment period): 57.1% | subjects with at least one TEAE ([3]; during treatment with mifepristone alone (600 mg OD)): 55.6% | deaths or SAEs [3, 9]: No deaths or SAEs were reported | severe TEAEs [3, 9]: No severe TEAEs were reported | increase in AUC0-24, Day 8 relative to Day 7 ([4]; Cohort 1, 300 mg OD): 25% | increase in Cmax, Day 8 relative to Day 7 ([4]; Cohort 1, 300 mg OD): 20% | increase in AUC0-24, Day 8 relative to Day 7 ([4]; Cohort 2, 600 mg OD): 28% | increase in Cmax, Day 8 relative to Day 7 ([4]; Cohort 2, 600 mg OD): 39% | AUC0-24 greater at 600 mg OD than at 300 mg OD ([4]; Day 8 with 400 mg ketoconazole): 52% | Cmax greater at 600 mg OD than at 300 mg OD ([4]; Day 8 with 400 mg ketoconazole): 65% | half-life greater at 600 mg OD than at 300 mg OD ([4]; Day 8 with 400 mg ketoconazole): 13% | Mean Ratio AUCτ, C1 Day 8/Day 7 [4, 10]: 1.25 | Mean Ratio Cmax, C1 Day 8/Day 7 [4, 10]: 1.19 | Mean Ratio AUCτ, C2 Day 8/Day 7 [4, 11]: 1.28 | Mean Ratio Cmax, C2 Day 8/Day 7 [4, 11]: 1.39 | Mean Ratio AUCτ, Day 7 C2/C1 [4, 12]: 1.48 | Mean Ratio Cmax, Day 7 C2/C1 [4, 12]: 1.42 | Mean Ratio AUCτ, Day 8 C2/C1 [4, 13]: 1.52 | Mean Ratio Cmax, Day 8 C2/C1 [4, 13]: 1.65 | liver function of the patient ([5]; Example 5: mifepristone reduced from 1200 mg to 900 mg daily with ketoconazole): not significantly compromised | liver function of the patient ([5]; Example 6: mifepristone reduced from 900 mg to 600 mg daily with ketoconazole): not significantly compromised | liver function of the patient ([5]; Example 7: mifepristone reduced from 600 mg to 300 mg daily with ketoconazole): not significantly compromised | liver function of the patient ([5]; Example 8: mifepristone reduced from 1500 mg to 1200 mg daily with ketoconazole): not significantly compromised | Mean Ratio AUCtotal (C2/C1) ([6]; geometric mean ratio (AUCinf in text)): 1.05 | Mean Ratio Cmax (C2/C1) ([6]; geometric mean ratio): 1.15 | concentrations on Day 17 compared with Day 12 ([7]; 600 mg mifepristone daily with 200 mg ketoconazole twice daily vs mifepristone alone): higher | trough concentrations through the start of ketoconazole administration (Day 13) ([7]; FIG. 1, 600 mg mifepristone OD): increasing day-by-day | difference of time 0 (pre-dose) plasma concentration, Day 17 vs Day 12 ([7]; FIG. 2, before and after inhibition of CYP3A by ketoconazole): ~500 ng/mL | Ratio % Test/Reference, AUC0-24 [7, 14]: 138.01% | Ratio % Test/Reference, Cmax [7, 14]: 127.59% | exposures as percent of those observed following the highest labeled dose of mifepristone (1200 mg daily) ([8]; 600 mg mifepristone OD + 200 mg ketoconazole BID): approximately 85% | Ratio % Test/Ref, AUC0-24 [8, 15]: 87.27% | Ratio % Test/Ref, Cmax [8, 15]: 84.64%
